Measurements as given in the supplement of paper PMC11451515.

Legend:
Test in all cases: AUC of viability dose-response curve (% viability x log10 dose units); higher = less sensitive
Details in all cases: 48 h
SEM cells = tested on: SEM cells
Procedure, shortened: (§1)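 Medium-adapted leukemia cells in 1536-well plates, at 500 or 1000 cells/well, were incubated for 48 h at 37°C with library compounds in DMSO at 11 threefold doses from 47 μM to 0.79 nM. CellTiter-Glo One luminescence normalised per plate to DMSO and cell-free wells was fitted with a four-parameter log-logistic model over log10 doses. Area under the curve was integrated from this fit by trapezoidal rule, with curves beyond full viability scaled and failed quality-control curves removed.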

NOMO1 = tested on: NOMO1
Procedure, shortened: as §1

P12-Ichikawa = tested on: P12-Ichikawa
Procedure, shortened: as §1

[1] = RPMI 5 mM glucose + 10% dialyzed FBS

Row | Compound | AUC of viability dose-response curve (SEM cells; HPLM + 10% dialyzed FBS) | AUC of viability dose-response curve (SEM cells; RPMI 5 mM glucose + 10% FBS) | AUC of viability dose-response curve (SEM cells; [1]) | AUC of viability dose-response curve (NOMO1; HPLM + 10% dialyzed FBS) | AUC of viability dose-response curve (NOMO1; RPMI 5 mM glucose + 10% FBS) | AUC of viability dose-response curve (NOMO1; [1]) | AUC of viability dose-response curve (P12-Ichikawa; HPLM + 10% dialyzed FBS) | AUC of viability dose-response curve (P12-Ichikawa; RPMI 5 mM glucose + 10% FBS) | AUC of viability dose-response curve (P12-Ichikawa; [1])
1 | CCCCC(C=O)NC(=O)C(CC(C)C)NC(=O)OCc1ccccc1 (configuration not stated) | 430 | 439 | 393 | 409 | 410 | 424 | 422 | 393 | 377
2 | CN1CCC[C@@H]1CCO[C@](C)(c1ccccc1)c1ccc(Cl)cc1 | 469 | 472 | 471 | 466 | 461 | 473 | 463 | 467 | 474
3 | COc1cc2nc(-c3cc(F)ccc3O)nc(N[C@@H]3CNC[C@H]3C(C)(C)O)c2cc1OC | 274 | 283 | 227 | 449 | 463 | 455 | 436 | 429 | 410
4 | CC[C@H](NC(=O)[C@H](C)NC)C(=O)N1C[C@@H](O)C[C@H]1Cc1c(-c2[nH]c3cc(F)ccc3c2C[C@@H]2C[C@H](O)CN2C(=O)[C@H](CC)NC(=O)[C@H](C)NC)[nH]c2cc(F)ccc12 | 469 | 442 | 437 | 347 | 323 | 362 |  |  | 
5 | C/C(O)=C(\C#N)C(=O)Nc1cc(Br)ccc1Br | 441 | 442 | 434 | 420 | 439 | 442 | 462 | 469 | 449
6 | CC[C@]12\C=C/CN3CC[C@]4([C@@H](N(C)C5=CC(=C(C=C45)[C@]6(C[C@H]7C[C@H](CN(C7)CC8=C6[NH]C9=C8C=CC=C9)C(C)(F)F)C(=O)OC)OC)[C@](O)([C@@H]1OC(C)=O)C(=O)OC)[C@H]23 | 215 | 179 | 196 | 256 | 221 | 250 | 189 | 176 | 212
7 | COC1=CC=C(C=C1O)C/2=C/C(=O)C3=C(O2)C=C(O)C=C3O | 419 | 456 | 456 | 466 | 428 | 437 | 440 | 446 | 381
8 | CC1(N2CCC(n3c([C@@H]4CCCNC4)nc4ccccc43)CC2)CCCCCCC1 | 430 | 467 | 471 | 420 | 460 | 433 | 456 | 458 | 456
9 | COC1=CC=CC(=C1N)\C2=C\C(=O)C3=C(O2)C=CC=C3 | 432 | 428 | 419 | 464 | 466 | 463 | 469 | 459 | 465
10 | O=C(c1ccc(F)c(F)c1Nc1ccc(I)cc1F)N1CC(O)([C@@H]2CCCCN2)C1 | 410 | 434 | 425 | 305 | 292 | 304 | 410 | 403 | 419
11 | COc1ccc(C2Sc3ccccc3N(CCN(C)C)C(=O)C2OC(C)=O)cc1 (configuration not stated) | 473 | 469 | 474 | 469 | 463 | 460 | 467 | 468 | 445
12 | ClC1=CC\2=C(NC(=O)\C(=C2N[C@@H]3CN4CCC3CC4)C5=NC6=C([NH]5)C=CC=C6)C=C1 | 211 | 200 | 218 | 286 | 257 | 276 | 302 | 263 | 291
13 | CN[C@@H]1Cc2cccc3[nH]c(=O)n(c23)C1 | 442 | 454 | 452 | 455 | 450 | 458 | 449 | 445 | 456
14 | O=C(O)/C=C/c1ccc(O)c(O)c1 | 447 | 423 | 428 | 454 | 453 | 462 | 449 | 447 | 443
15 | CC[C@@]1(O)C(=O)OC\C2=C1\C=C\3N(CC4=C3N=C5C=CC=CC5=C4)C2=O | 190 | 158 | 165 | 248 | 241 | 246 | 172 | 164 | 161
16 | Nc1nnc(-c2cccc(Cl)c2Cl)c(N)n1 | 425 | 402 | 418 |  |  |  |  |  | 
17 | Cc1ccc([S+](=O)([O-])Nc2nc3ccccc3nc2Nc2ccc3nsnc3c2)cc1 | 410 | 440 | 409 | 361 | 360 | 365 | 422 | 405 | 438
18 | Cc1csc(NC(=O)c2sc3nc4c(c(C(F)(F)F)c3c2N)CCC4)n1 | 429 | 442 | 420 | 449 | 419 | 441 | 444 | 433 | 394
19 | CC/1=C(/C(CC(=O)N1)C2=CC=C(C=C2)C(F)(F)F)C(=O)NC3=C(F)C=C4[NH]N=CC4=C3 (configuration not stated) | 405 | 418 | 411 | 422 | 389 | 415 | 442 | 450 | 448
20 | [O-]C(=O)C1=C(C(=C(Cl)C(=C1Cl)Cl)Cl)C/2=C/3\C=C(I)/C(=O)/C(=C3OC4=C2C=C(I)C(=C4I)[O-])I | 466 | 464 | 462 | 474 | 451 | 457 | 446 | 450 | 445
21 | COc1cc2c(Nc3ccc(Br)cc3F)ncnc2cc1OCC1CCN(C)CC1 |  |  |  | 373 | 373 | 380 | 419 | 396 | 398
